Data: PMC5654082 (Malaria Journal, 2017)
Where a name gives a salt, the structure may show the parent alone.

Target: T1, MATE1 (Homo sapiens, UniProt Q96FL8)
T1 sequence (Q96FL8 1-570): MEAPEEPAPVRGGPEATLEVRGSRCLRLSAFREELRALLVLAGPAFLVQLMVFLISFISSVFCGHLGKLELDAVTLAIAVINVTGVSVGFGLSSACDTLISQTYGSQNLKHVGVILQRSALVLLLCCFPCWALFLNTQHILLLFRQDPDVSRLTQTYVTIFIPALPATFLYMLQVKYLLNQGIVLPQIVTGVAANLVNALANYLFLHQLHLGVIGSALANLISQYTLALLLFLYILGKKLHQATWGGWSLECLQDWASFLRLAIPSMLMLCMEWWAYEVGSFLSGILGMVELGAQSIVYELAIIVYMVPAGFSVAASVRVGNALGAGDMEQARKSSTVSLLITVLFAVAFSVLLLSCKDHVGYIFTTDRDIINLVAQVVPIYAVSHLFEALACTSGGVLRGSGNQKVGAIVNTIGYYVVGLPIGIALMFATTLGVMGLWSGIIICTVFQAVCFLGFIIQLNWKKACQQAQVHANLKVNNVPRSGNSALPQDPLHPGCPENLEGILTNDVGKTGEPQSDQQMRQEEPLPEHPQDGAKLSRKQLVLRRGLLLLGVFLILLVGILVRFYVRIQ
Assay: Export assay in HEK293 cells co-transduced with OCT1 and MATE1
Assay type: cell-based
Parameters: host or cells: HEK293, baculovirus transduction (CMV promoter), transient; co-transduced with human OCT1 in the export assay
Conditions: cells expressing OCT1 and MATE1; 1 µM, 1 min, pH 7.4
Procedure: HEK293 cells were modified to transiently express (a combination of) human OCT1, OCT2, MATE1, MATE2-K, or eYFP. Briefly, cDNA of the respective genes was cloned downstream of a CMV promoter into a baculovirus, of which passage three was used to transduce HEK293 cells. These cells were seeded in poly-D-lysine coated 24- or 96-wells plates and grown in a 37 °C incubator at 5% CO2. Growth was initiated at ~ 25% confluency using 375 or 125 μL cell and complete medium (DMEM + GlutaMAX™-I supplemented with 10% fetal bovine serum) suspension per well, respectively. […]
Import and export of PG and cycloguanil (CG) was assessed by single and double transduced HEK293 cells. […] Significant reduction in uptake (i.e. export by MATEs) was determined using ln transformation and a one-way repeated measures ANOVA with Dunnet’s post test.
Anti-malarial concentration in the cell lysates was quantified using an LC–MS/MS system consisting of a UPLC, a binary solvent manager, a vacuum degasser and an autosampler, coupled to a Xevo TQ-S micro triple quadrupole mass spectrometer. […] Positive ion mode was used with selected reaction monitoring (SRM) for the quantitative analysis of AMO, ART, ATO, CQ, CG, DHA, LUM, MQ, PQ, PG, and QN. The peak area of the most abundant product ion was used for quantification.

[H]/N=C(\N/C(=N/[H])Nc1ccc(Cl)cc1)NC(C)C [Proguanil, proguanil hydrochloride]
Uptake, percentage of eYFP control cells: 780 ± 70%
